From patent US20230027066A1 (Urovant Sciences GmbH, priority 2019, published 2023)

Test system: men and women with overactive bladder
Assay: Phase 3 study of vibegron 75 mg vs placebo and tolterodine ER 4 mg, 12 weeks, efficacy (voiding and urine volume diary)
Type: in vivo, human
Conditions: for Daily Urgency Episodes: Reduction from Baseline at Week 12, LS Mean: vibegron 75 mg, tolterodine ER 4 mg; for Patients with 100% Reduction in UUI from Baseline to Week 12, Unadjusted n (%) / Patients with at Least 75% Reduction in UUI from Baseline to Week 12, Unadjusted n (%) / Patients with 100% Reduction in UUI from Baseline to Week 12, Adjusted n (%) / Patients with at Least 75% Reduction in UUI from Baseline to Week 12, Adjusted n (%): FAS-I; for Patients with 100% Reduction in UUI from Baseline to Week 12, Adjusted n (%) / Patients with at Least 75% Reduction in UUI from Baseline to Week 12, Adjusted n (%): MI for missing values; for 75% UUI responders, Active-Placebo CMH Difference / 100% UUI responders, Active-Placebo CMH Difference: stratified by sex; for Urgency, Change from Baseline LS Mean / Urgency, LS Mean Difference active - Placebo: baseline to Week 12
Procedure: Enrollment of patients included individuals with OAB Wet (those with UUI, the involuntary loss of urine accompanied by urgency) and OAB Dry (those without UUI). A total of 1,518 patients were randomized across 215 study sites into one of three groups for a 12-week treatment period.
The study consisted of a Screening Period (1 to 5 weeks), a single-blind Run-in Period (2 weeks), a randomized double-blind Treatment Period (12 weeks), and a Follow-up Period (4 weeks).
Tolterodine ER 4 mg was the active control. […] Between the Baseline and Week 12 Visits, patients had study assessments at Week 4 and Week 8.
The Patient Voiding Diary was used by participants (via the eDiary or paper Diary) to record the frequency of daily OAB symptoms including all micturitions, urgency, incontinence, and main reason for incontinence by selecting the respective box for each symptom occurring during the course of a given day and night.
Urine volume data were collected separately by patients using the Urine Volume component of the eDiary, or the paper Urine Volume Chart. The Urine Volume Chart is a tool used in clinical practice and clinical investigation to assess voiding functions over a 24-hour period and is regarded as a useful instrument in the investigation of patients with voiding symptoms. Urine volume may be collected during any one (1) of the 7 Diary Days prior to the visit, and it should be recorded for ˜24 hours starting from the time the patient gets up for the day and continues until the time the patient gets up for the day on the next day.
For the purpose of this study, the number of micturitions was defined as the number of times a patient has voided in the toilet as indicated on the Patient Voiding Diary. Average daily micturitions were calculated using the daily entries in the Patient Voiding Diary, which was completed over the 7 days prior to each study visit. Average daily number of micturitions were calculated as the total number of micturitions that occurred on a Complete Diary Day divided by the number of Complete Diary Days in the Patient Voiding Diary. A complete diary day required confirmation by the patient in the Patient Voiding Diary that all voids and leakages had been recorded for the diary day. Baseline was defined as the average number of micturitions occurring during the last evaluable diary prior to the Baseline Visit.
The number of UUI episodes was defined as the number of times a patient had checked “urge” as the reason for accidental urine leakage. Average daily UUI episodes at each study visit were calculated in the same manner as described above for the micturition endpoint. The UUI endpoint were analyzed using only OAB Wet patients.
For the analysis of the co-primary endpoints (change from baseline in average number of daily micturitions at Week 12 and change from baseline in average number of daily urge urinary incontinence episodes at Week 12, and placebo adjustment of each), a mixed model for repeated measure (MMRM) with restricted maximum likelihood estimation was used. This model corrects for dropout and accounts for the fact that measurements taken on the same patient over time tend to be correlated by using all available information on patients within the same covariate set to derive an estimate of the treatment effect for a dropout-free population. The analysis model for each efficacy endpoint includes terms for treatment, visit, OAB Type (Wet vs Dry), Sex (Female vs Male), Region (US vs Rest of World), baseline score, and interaction of visit by treatment.
Primary inferences were drawn from treatment differences for the changes from baseline derived from the MMRM models at Week 12. As part of secondary objectives, the treatment differences for each post baseline visit were also derived using the same MMRM model. […]

[1] = 50% Total Incontinence Responders, Week 2
[2] = 50% Total Incontinence Responders, Week 4
[3] = 50% Total Incontinence Responders, Week 8
[4] = 50% Total Incontinence Responders, Week 12
[5] = Cox model with sex as covariate, >1 = more treated subjects attain reduction
[6] = Dry population, baseline to Week 2

In the case of `Cc1ccc(O)c([C@H](CCN(C(C)C)C(C)C)c2ccccc2)c1` [Tolterodine ER, tolterodine, reference compound], the “Average Volume Voided per Micturition, Mean (SD)” value [1] is reported as 167.1 (75.27), the “Average daily number of urgency episodes, Mean (SD)” value (“Average daily number … (SD)” for short) [1] is reported as 5.68 (3.690) and the “Change from Baseline in Average Daily Number of Urgency Episodes, LS Mean (SE)” value (shortened to “Change from Baseline … (SE)”) [1] is reported as −2.1 (0.17). For the same molecule, the “Change from Baseline in Average Volume Voided per Micturition, LS Mean” value (shortened to “Change from Baseline … per Micturition, LS Mean”) [1] was 16.9 (4.12), the “Change from baseline in Percent Dry Diary Days, LS Mean” value [1] was 23.9 (2.33) Percent and the “Percent Dry Diary Days, Mean (SD)” value [1] was 28.44 (35.758) Percent. For the same molecule, the “Average Volume Voided per Micturition, Mean (SD)” value [2] was 171.3 (73.88), the “Average daily number … (SD)” value [2] was 5.18 (3.663) and the “Change from Baseline … (SE)” value [2] was −2.6 (0.18). The “Change from Baseline … per Micturition, LS Mean” value [2] was 16.3 (4.38), the “Change from baseline in Percent Dry Diary Days, LS Mean” value [2] was 32.6 (2.69) Percent and the “Percent Dry Diary Days, Mean (SD)” value [2] was 36.82 (40.267) Percent. The “Average Volume Voided per Micturition, Mean (SD)” value [3] was 177.7 (76.78), the “Average daily number … (SD)” value [3] was 4.68 (3.707) and the “Change from Baseline … (SE)” value [3] was −3.1 (0.21). The “Change from Baseline … per Micturition, LS Mean” value [3] was 24.8 (4.56), the “Change from baseline in Percent Dry Diary Days, LS Mean” value [3] was 40.0 (2.76) Percent and the “Percent Dry Diary Days, Mean (SD)” value [3] was 44.86 (40.529) Percent. The “Average Volume Voided per Micturition, Mean (SD)” value [4] was 175.4 (77.58), the “Average daily number … (SD)” value [4] was 4.02 (3.539) and the “Change from Baseline … (SE)” value [4] was −3.6 (0.22). For the same molecule, the “Change from Baseline … per Micturition, LS Mean” value [4] was 21.1 (4.74), the “Change from baseline in Percent Dry Diary Days, LS Mean” value [4] was 49.7 (2.68) Percent and the “Percent Dry Diary Days, Mean (SD)” value [4] was 55.43 (37.734) Percent. The “Average Volume Voided per Micturition, Mean (SD)” value (75% UUI Responders, Week 2) was 170.6 (77.20), the “Average daily number … (SD)” value (75% UUI Responders, Week 2) was 5.37 (3.577) and the “Change from Baseline … per Micturition, LS Mean” value (75% UUI Responders, Week 2) was 17.5 (4.96). The “Change from baseline in average daily number of urgency episodes, LS Mean” value (75% UUI Responders, Week 2) was −2.3 (0.21), the “Average Volume Voided per Micturition, Mean (SD)” value (75% UUI Responders, Week 4) was 174.8 (73.04) and the “Average daily number … (SD)” value (75% UUI Responders, Week 4) was 4.93 (3.675). The “Change from Baseline … per Micturition, LS Mean” value (75% UUI Responders, Week 4) was 16.2 (5.27), the “Change from baseline in average daily number of urgency episodes, LS Mean” value (75% UUI Responders, Week 4) was −2.8 (0.23) and the “Average Volume Voided per Micturition, Mean (SD)” value (75% UUI Responders, Week 8) was 182.1 (77.27). The “Average daily number … (SD)” value (75% UUI Responders, Week 8) was 4.42 (3.677), the “Change from Baseline … per Micturition, LS Mean” value (75% UUI Responders, Week 8) was 26.1 (5.51) and the “Change from baseline in average daily number of urgency episodes, LS Mean” value (75% UUI Responders, Week 8) was −3.3 (0.25). For the same molecule, the “Average Volume Voided per Micturition, Mean (SD)” value (75% UUI Responders, Week 12) was 177.3 (77.70), the “Average daily number … (SD)” value (75% UUI Responders, Week 12) was 3.67 (3.542) and the “Change from Baseline … per Micturition, LS Mean” value (75% UUI Responders, Week 12) was 19.1 (5.83). The “Change from baseline in average daily number of urgency episodes, LS Mean” value (75% UUI Responders, Week 12) was −3.9 (0.27), the “Daily Urgency Episodes: Reduction from Baseline at Week 12, LS Mean” value (shortened to “Daily Urgency Episodes: Reduction”) (Age ≥65 years) was −2.1 and the “Daily Urgency Episodes: Reduction” value (Age ≥75 years) was −2.4. For the same molecule, the “Daily Urgency Episodes: Reduction” value (All patients) was −2.5, the “Patients with 100% Reduction in UUI from Baseline to Week 12, Unadjusted n (%)” value (Baseline Number of UUI <3) was 62 (33.2) n (%) and the “Patients with at Least 75% Reduction in UUI from Baseline to Week 12, Unadjusted n (%)” value (Baseline Number of UUI <3) was 98 (52.4) n (%). For the same molecule, the “Patients with 100% Reduction in UUI from Baseline to Week 12, Adjusted n (%)” value (Baseline Number of UUI <3) was 54 (29.0) n (%), the “Patients with at Least 75% Reduction in UUI from Baseline to Week 12, Adjusted n (%)” value (Baseline Number of UUI <3) was 91 (48.4) n (%) and the “75% UUI responders, Active-Placebo CMH Difference” value (Baseline Number of UUI <3) was 10.1. The “100% UUI responders, Active-Placebo CMH Difference” value (Baseline Number of UUI <3) was 1.5, the “Patients with 100% Reduction in UUI from Baseline to Week 12, Unadjusted n (%)” value (Baseline Number of UUI ≥3) was 23 (17.4) n (%) and the “Patients with at Least 75% Reduction in UUI from Baseline to Week 12, Unadjusted n (%)” value (Baseline Number of UUI ≥3) was 54 (40.9) n (%). For the same molecule, the “Patients with 100% Reduction in UUI from Baseline to Week 12, Adjusted n (%)” value (Baseline Number of UUI ≥3) was 13 (9.6) n (%), the “Patients with at Least 75% Reduction in UUI from Baseline to Week 12, Adjusted n (%)” value (Baseline Number of UUI ≥3) was 44 (33.7) n (%) and the “75% UUI responders, Active-Placebo CMH Difference” value (Baseline Number of UUI ≥3) was 8.4. The “100% UUI responders, Active-Placebo CMH Difference” value (Baseline Number of UUI ≥3) was 2.6, the “Hazard Ratio, 50% reduction in urgency episodes, Compared to Placebo Using Proportional Hazards” value [5] was 1.225 and the “Hazard Ratio, 100% reduction in UUI episodes, Compared to Placebo Using Proportional Hazards” value [5] was 1.141. The “Urgency, Change from Baseline LS Mean” value (Dry population, Age <65) was −2.3 (57), the “Urgency, LS Mean Difference active - Placebo” value (Dry population, Age <65) was −0.8 and the “Urgency, Change from Baseline LS Mean” value (Dry population, Age ≥65) was −1.5 (35). The “Urgency, LS Mean Difference active - Placebo” value (Dry population, Age ≥65) was 0.2, the “Average daily number … (SD)” value (Dry population, Week 2) was 6.87 (4.260) and the “Change from baseline in average daily number of urgency episodes, LS Mean” value (Dry population, Week 2) was −1.4 (0.27). The “Urgency episodes, Active - Placebo LS Mean Difference” value (Dry population, Week 2) was −0.6 (0.37), the “Average daily number … (SD)” value (Dry population, Week 4) was 7.03 (4.865) and the “Change from baseline in average daily number of urgency episodes, LS Mean” value (Dry population, Week 4) was −1.6 (0.29). For the same molecule, the “Urgency episodes, Active - Placebo LS Mean Difference” value (Dry population, Week 4) was −0.7 (0.40), the “Average daily number … (SD)” value (Dry population, Week 8) was 6.25 (4.957) and the “Change from baseline in average daily number of urgency episodes, LS Mean” value (Dry population, Week 8) was −2.2 (0.34). The “Urgency episodes, Active - Placebo LS Mean Difference” value (Dry population, Week 8) was −1.0 (0.46), the “Average daily number … (SD)” value (Dry population, Week 12) was 6.56 (5.480) and the “Change from baseline in average daily number of urgency episodes, LS Mean” value (Dry population, Week 12) was −2.0 (0.36). For the same molecule, the “Urgency episodes, Active - Placebo LS Mean Difference” value (Dry population, Week 12) was −0.4 (0.49), the “Patients with at Least 50% Reduction in Urgency Episodes, Adjusted (%)” value [6] was 16.3% and the “Patients with at Least 50% Reduction in Urgency Episodes, Adjusted n” value [6] was 16. For the same molecule, the “Patients with at Least 50% Reduction in Urgency Episodes, Unadjusted (%)” value [6] was 16.3% and the “Patients with at Least 50% Reduction in Urgency Episodes, Unadjusted n” value [6] was 16.
